In assay [1] the target is T1, Sodium-dependent dopamine transporter (Rattus norvegicus, UniProt P23977). As to the kind of experiment: Inhibition of dopamine uptake into rat striatal tissue, using [3H]- dopamine as the radioligand. Type of assay: tissue-based, Striatum.
Assay [2] deals with T1, Sodium-dependent dopamine transporter. Kind of assay: Inhibitory binding activity against rat striatal tissue using [3H][…] as the radioligand. The class given is tissue-based, Striatum.
Assay [3] has as its target Sodium-dependent dopamine transporter (Rattus norvegicus) (UniProt P23977). Kind of assay: Discrimination ratio of compound is the ratio of inhibitory activity against [3H]dopamine uptake over [3H][…] binding.

Each structure is given as a SMILES string.

One may read the IC50 as the concentration that gives 50% inhibition. A lower IC50 goes with higher potency.

T1 sequence (P23977 whole entry): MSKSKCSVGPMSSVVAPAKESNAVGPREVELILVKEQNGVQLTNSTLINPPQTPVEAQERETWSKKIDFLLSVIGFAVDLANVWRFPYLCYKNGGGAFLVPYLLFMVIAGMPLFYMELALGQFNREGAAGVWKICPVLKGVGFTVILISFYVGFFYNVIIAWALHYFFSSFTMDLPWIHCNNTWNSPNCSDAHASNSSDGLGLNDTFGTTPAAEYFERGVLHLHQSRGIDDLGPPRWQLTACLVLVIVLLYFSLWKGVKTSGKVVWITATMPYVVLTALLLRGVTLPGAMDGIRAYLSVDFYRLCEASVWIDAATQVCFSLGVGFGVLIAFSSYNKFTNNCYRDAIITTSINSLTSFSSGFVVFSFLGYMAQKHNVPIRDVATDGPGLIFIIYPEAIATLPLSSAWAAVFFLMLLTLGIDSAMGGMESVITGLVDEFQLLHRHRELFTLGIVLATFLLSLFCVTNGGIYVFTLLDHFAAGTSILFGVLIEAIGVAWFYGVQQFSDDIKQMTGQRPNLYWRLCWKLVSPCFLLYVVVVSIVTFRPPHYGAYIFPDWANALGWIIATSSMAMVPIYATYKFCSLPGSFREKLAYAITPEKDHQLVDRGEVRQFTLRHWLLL
Chain of Sodium-dependent dopamine transporter (Rattus norvegicus) (P23977 whole entry): as above

In the case of `COc1ccc(C2C3CCC(CC3)C2CN(C)C)cc1` (centres undefined), the IC50 in assay [1] was found to be 1430 nM; in assay [2], 380 nM. Also, the Discrimination ratio in assay [3] came out at 3.8.
With `NCC1C2CCC(CC2)C1c1ccc(N)cc1` (centres undefined), the IC50 in assay [1] was 704 nM; in assay [2], 160 nM. Further, the Discrimination ratio in assay [3] came out at 4.4.
For `COc1ccc(C2C3CCC(CC3)C2CN)cc1` (centres undefined), the figures for the IC50 in assay [1] and in assay [2] were 1500 nM and 249 nM, respectively. Also, the Discrimination ratio in assay [3] came to 6.

Values taken from ChEMBL document CHEMBL1132169 (J Med Chem, 1999).
